One may read the IC50 as the midpoint of a concentration-inhibition curve. A low value points to inhibition by little substance.

In ChEMBL document CHEMBL1139603, “Synthesis and structure-activity relationship of 3-phenyl-3H-quinazolin-4-one derivatives as CXCR3 chemokine receptor antagonists” (Bioorg Med Chem Lett, 2005) one finds IC50 data, which are given here for nine compounds.

The structures appear in SMILES notation.

For this assay, the target named is T1, C-X-C chemokine receptor type 3 (Homo sapiens, UniProt P49682).
T1 sequence (P49682 whole entry): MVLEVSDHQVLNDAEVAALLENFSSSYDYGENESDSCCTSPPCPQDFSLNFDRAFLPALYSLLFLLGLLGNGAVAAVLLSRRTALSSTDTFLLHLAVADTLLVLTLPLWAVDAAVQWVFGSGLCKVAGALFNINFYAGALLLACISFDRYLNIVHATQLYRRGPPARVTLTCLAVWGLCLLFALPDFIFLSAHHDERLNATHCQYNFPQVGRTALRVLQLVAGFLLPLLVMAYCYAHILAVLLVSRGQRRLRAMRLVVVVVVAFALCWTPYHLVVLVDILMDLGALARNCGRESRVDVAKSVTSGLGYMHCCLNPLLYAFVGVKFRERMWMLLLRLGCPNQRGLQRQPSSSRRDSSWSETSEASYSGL
Put plainly: Inhibitory concentration against […] expressed in human HEK293 cells using [125I]CXCL10 as radioligand. In kind it is cell-based.

In the case of `CCCCCCCCCC(=O)N(CCN(C)C)C(C)c1nc2ccccc2c(=O)n1-c1ccc(C#N)cc1` (centres undefined), the IC50 is 0.93 µM.
As for `CCCCCCCCCC(=O)N(CCN(C)C)C(C)c1nc2ccccc2c(=O)n1-c1ccccc1C#N` (centres undefined), the figure is 10 µM; as for `CCCCCCCCCC(=O)N(CCN(C)C)C(C)c1nc2ccccc2c(=O)n1-c1ccc(C)cc1` (centres undefined), 3.1 µM; as for `CCCCCCCCCC(=O)N(CCN(C)C)C(C)c1nc2ccccc2c(=O)n1-c1ccc(O)cc1` (centres undefined), over 100 µM.
In turn, `CCCCCCCCCC(=O)N(CCN(C)C)C(C)c1nc2ccccc2c(=O)n1-c1ccc(OC)cc1` (centres undefined) yielded an IC50 of 3.3 µM.
For `CCCCCCCCCC(=O)N(CCN(C)C)C(C)c1nc2ccccc2c(=O)n1-c1ccc(F)cc1` (centres undefined) the value was 3.2 µM.
For `CCCCCCCCCC(=O)N(CCN(C)C)C(C)c1nc2ccccc2c(=O)n1-c1ccccc1` (centres undefined) the value was 15 µM.
For `CCCCCCCCCC(=O)N(CCN(C)C)C(C)c1nc2ccccc2c(=O)n1-c1cccc(C#N)c1` (centres undefined) the value was 5.8 µM; for `CCCCCCCCCC(=O)N(CCN(C)C)C(C)c1nc2ccccc2c(=O)n1-c1ccc(C(F)(F)F)cc1` (centres undefined), over 100 µM.
